Measurements as given in patent publication US11779630B2, “Peptides and methods of using the same” (SERPIN PHARMA, LLC, priority 2020, dated 2023).

How the values were obtained:
NFκB = NFκB reporter assay (THP1-XBlue-MD2-CD14 cells) stimulated with LPS, SEAP readout; details: peptide 50 μg/ml, LPS 5 ng/ml, overnight (FIG. 1)
mice, lethal endotoxemia = assay: Mouse model of lethal endotoxemia (LPS 15 mg/kg); format: in vivo
Procedure: FIG. 27A: The mice were treated with SP16 or vehicle and challenged with a lethal dose of LPS (15 mg/kg) and assessed for survival over 72 hours.

With “RRRVKFNKPFVFLMIEQNTKRRR (RRRVKFNKPFVFLMIEQNTKRRR; peptide derivative) [SP21]” the “NFκB activity (NFκB inducible SEAP in supernatant)” value (“NFκB activity” below) (NFκB) was “NFkB inhibition increased as well relative to SP16”.

In the case of “R R R V K F N K P F V F L M R R R (RRRVKFNKPFVFLMRRR; peptide derivative) [SP22]”, the “NFκB activity” value (NFκB) is reported as “NFκB activity was significantly reduced”.

For “R R R V R F N R P F L R R R (RRRVRFNRPFLRRR; peptide derivative) [SP32]”, the “NFκB activity” value (NFκB) was “could not be restored with the Poly arginine flanks”.

For “V K F N K P F V F L M (VKFNKPFVFLM; listed as Homo sapiens) [SP20]”, the “NFκB activity” value (NFκB) was “did not have an inhibitory effect”.

With “V K F N K P F V F L M I E Q N T K (VKFNKPFVFLMIEQNTK; listed as Homo sapiens) [SP16]” the “survival between 30 and 42 hours” value (mice, lethal endotoxemia) was 100%, the “survival by 72-hrs” value (mice, lethal endotoxemia; p<0.001 vs. vehicle) was 60% and the “NFκB activity” value (NFκB) was “capable of reducing NFκB activity”.

“V R F N R P F L (VRFNRPFL; peptide derivative) [SP31]” was tested, and the “NFκB activity” value (NFκB) was “anti-inflammatory activity of the peptide was lost”.
